# What was measured:
# B. diazoefficiens ΔhpnH = assay: MIC of polymyxin B by E-test; type: cell-based, Bradyrhizobium diazoefficiens
# Experimental: (§1) Disk diffusion assays were used to quantify growth under oxidative, acidic and detergent stresses. For this, 4 day-old cultures of B. diazoefficiens strains grown in yeast extract-mannitol (YM) medium were washed and adjusted to an OD600 of 1.2 ml bacterial suspensions were then mixed with 100 ml of 42° C. pre-warmed YM soft agar (0.8% agar) and 5 ml portions of this mixture were poured on solid YM. Filter disks were placed at the center of the plates, and 5 μl of 5.5 M H2O2, 2 M HCl or SDS (10% w/v), were deposited on the disks. The diameters of growth inhibition areas were measured after incubation at 30° C. for 5 days.
# (§2) The MIC of polymyxin B was determined by the E-test method using disk diffusion assay as described above. Strips containing a gradient of polymyxin B ranging from 0.064-1024 μg/mL (Biomérieux, Marcy-l'étoile, France) were placed in the center of plates, which were incubated at 30° C. for 7 days before recording the results. The experiment was done in triplicates.
# B. diazoefficiens WT = assay: MIC of polymyxin B by E-test; type: cell-based, Bradyrhizobium diazoefficiens; conditions: E-test strips 0.064-1024 μg/mL, 30° C., 7 days
# Experimental: as §1, §2
substance,measurement,setting,value
polymyxin B,MIC for polymyxin B,"B. diazoefficiens ΔhpnH; E-test strips 0.064-1024 μg/mL, 30° C., 7 days",48 µg/mL
same,fold lower MIC for polymyxin B in ΔhpnH than WT,B. diazoefficiens ΔhpnH; ΔhpnH versus WT,10 fold
same,MIC for polymyxin B,B. diazoefficiens WT,512 µg/mL
